Measured values reported in PubChem BioAssay (NCI).
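1) Cells in 96-well plates. 2) Compound, 48 h, 5 concentrations. 3) Linear interpolation between surrounding doses. 4) Unreached endpoint = highest concentration. GI50 marks 50% less growth. At the TGI there is no net growth.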

What was measured:
Assay in all cases: inhibition of tumour cell growth, NCI panel, 48 h
[1] = tested on: SN12C renal
[2] = tested on: SW-620 colon
[3] = tested on: K-562 leukemia
[4] = tested on: HS 578T breast
[5] = tested on: A498 renal
[6] = tested on: BT-549 breast
[7] = tested on: KM12 colon
[8] = tested on: MALME-3M melanoma
[9] = tested on: PC-3 prostate
[10] = tested on: SF-295 CNS
[11] = tested on: 786-0 renal
[12] = tested on: M14 melanoma
[13] = tested on: SK-MEL-5 melanoma
[14] = tested on: CCRF-CEM leukemia
[15] = tested on: NCI/ADR-RES ovarian
[16] = tested on: HOP-62 NSCLC
[17] = tested on: COLO 205 colon
[18] = tested on: RPMI-8226 leukemia
[19] = tested on: NCI-H460 lung
[20] = tested on: NCI-H522 lung
[21] = tested on: OVCAR-5 ovarian
[22] = tested on: TK-10 renal
[23] = tested on: LOX IMVI melanoma
[24] = tested on: HL-60(TB) leukemia
[25] = tested on: SK-MEL-2 melanoma
[26] = tested on: SK-OV-3 ovarian
[27] = tested on: HCT-116 colon
[28] = tested on: HT29 colon
[29] = tested on: HCC-2998 colon
[30] = tested on: OVCAR-8 ovarian
[31] = tested on: DU-145 prostate
[32] = tested on: NCI-H226 lung
[33] = tested on: OVCAR-3 ovarian
[34] = tested on: SNB-19 CNS
[35] = tested on: U251 CNS
[36] = tested on: SF-268 CNS
[37] = tested on: NCI-H23 lung
[38] = tested on: MOLT-4 leukemia
[39] = tested on: UACC-257 melanoma
[40] = tested on: EKVX NSCLC
[41] = tested on: MDA-MB-231 breast
[42] = tested on: CAKI-1 renal
[43] = tested on: SF-539 CNS
[44] = tested on: SR leukemia
[45] = tested on: HCT-15 colon
[46] = tested on: SNB-75 CNS
[47] = tested on: UO-31 renal
[48] = tested on: IGROV1 ovarian
[49] = tested on: MCF7 breast
[50] = tested on: UACC-62 melanoma
[51] = tested on: OVCAR-4 ovarian
[52] = tested on: SK-MEL-28 melanoma
[53] = tested on: A549 NSCLC
[54] = tested on: HOP-92 NSCLC
[55] = tested on: ACHN renal
[56] = tested on: RXF 393 renal
[57] = tested on: MDA-MB-435
[58] = tested on: T-47D breast

## Nc1n[nH]c2ccc([C@@H]3Nc4ccc5[nH]ncc5c4[C@H]4[C@H]5CCC(C5)[C@H]43)cc12
[1]
  GI50: 618 nM
  TGI: > 89700 nM
[2]
  GI50: 372 nM
  TGI: > 100000 nM
[3]
  GI50: 264 nM
  TGI: > 100000 nM
[4]
  GI50: 310 nM
  TGI: 12700 nM
[5]
  GI50: 168 nM
  TGI: 641 nM
[6]
  GI50: 489 nM
  TGI: 9290 nM
[7]
  GI50: 406 nM
  TGI: 10800 nM
[8]
  GI50: 461 nM
  TGI: > 47500 nM
[9]
  GI50: 397 nM
  TGI: 23000 nM
[10]
  GI50: 302 nM
  TGI: 3470 nM
[11]
  GI50: 757 nM
  TGI: 33800 nM
[12]
  GI50: 293 nM
  TGI: > 40700 nM
[13]
  GI50: 403 nM
  TGI: 2600 nM
[14]
  GI50: 383 nM
  TGI: > 100000 nM
[15]
  GI50: 525 nM
  TGI: > 44100 nM
[16]
  GI50: 597 nM
  TGI: > 74000 nM
[17]
  GI50: 375 nM
  TGI: 5680 nM
[18]
  GI50: 338 nM
  TGI: 2370 nM
[19]
  GI50: 358 nM
  TGI: 10900 nM
[20]
  GI50: 310 nM
  TGI: 3570 nM
[21]
  GI50: 572 nM
  TGI: 49600 nM
[22]
  GI50: 8250 nM
  TGI: > 79500 nM
[23]
  GI50: 700 nM
  TGI: 14500 nM
[24]
  GI50: 247 nM
  TGI: 654 nM
[25]
  GI50: 1240 nM
  TGI: 40800 nM
[26]
  GI50: 823 nM
  TGI: > 80100 nM
[27]
  GI50: 404 nM
  TGI: > 100000 nM
[28]
  GI50: 350 nM
  TGI: > 36800 nM
[29]
  GI50: 381 nM
  TGI: 11600 nM
[30]
  GI50: 479 nM
  TGI: > 47500 nM
[31]
  GI50: 445 nM
  TGI: > 28300 nM
[32]
  GI50: 331 nM
  TGI: 2880 nM
[33]
  GI50: 230 nM
  TGI: 640 nM
[34]
  GI50: 515 nM
  TGI: > 100000 nM
[35]
  GI50: 435 nM
  TGI: > 100000 nM
[36]
  GI50: 1560 nM
  TGI: 43700 nM
[37]
  GI50: 654 nM
  TGI: > 46000 nM
[38]
  GI50: 407 nM
  TGI: > 51300 nM
[39]
  GI50: 15800 nM
  TGI: > 100000 nM
[40]
  GI50: 606 nM
  TGI: > 100000 nM
[41]
  GI50: 688 nM
  TGI: 18500 nM
[42]
  GI50: 436 nM
  TGI: 24700 nM
[43]
  GI50: 238 nM
  TGI: 673 nM
[44]
  GI50: 280 nM
  TGI: 20200 nM
[45]
  GI50: 407 nM
  TGI: > 100000 nM
[46]
  GI50: 160 nM
  TGI: 11300 nM
[47]
  GI50: 698 nM
  TGI: 46500 nM
[48]
  GI50: 513 nM
  TGI: > 51600 nM
[49]
  GI50: 363 nM
  TGI: > 100000 nM
[50]
  GI50: 389 nM
  TGI: > 61100 nM
[51]
  GI50: 2050 nM
  TGI: > 100000 nM
[52]
  GI50: 910 nM
  TGI: > 76300 nM
[53]
  GI50: 586 nM
  TGI: > 100000 nM
[54]
  GI50: 1450 nM
  TGI: 14900 nM
[55]
  GI50: 895 nM
  TGI: > 72000 nM

## COc1cc2c(cc1OCCCCCOc1cc3c(cc1OC)C(=O)N1CCC[C@H]1C(=O)N3)N=C[C@@H]1CCCN1C2=O
[4]
  TGI: 4170 nM
[5]
  TGI: 1100 nM
[6]
  TGI: 6670 nM
[7]
  TGI: 37100 nM
[10]
  TGI: 5590 nM
[11]
  TGI: 4710 nM
[12]
  TGI: 521 nM
[15]
  TGI: 33100 nM
[16]
  TGI: 26300 nM
[17]
  TGI: 50.9 nM
[18]
  TGI: 179 nM
[56]
  TGI: 413 nM
[20]
  TGI: 41.9 nM
[57]
  TGI: 284 nM
[22]
  TGI: 253 nM
[23]
  TGI: 997 nM
[24]
  TGI: 1510 nM
[25]
  TGI: 666 nM
[27]
  TGI: > 100000 nM
[29]
  TGI: 20900 nM
[30]
  TGI: 31500 nM
[31]
  TGI: > 100000 nM
[32]
  TGI: 750 nM
[33]
  TGI: 575 nM
[34]
  TGI: > 100000 nM
[35]
  TGI: 510 nM
[36]
  TGI: 10400 nM
[37]
  TGI: 1890 nM
[39]
  TGI: 707 nM
[40]
  TGI: 9540 nM
[42]
  TGI: 4250 nM
[43]
  TGI: 56.2 nM
[45]
  TGI: > 100000 nM
[46]
  TGI: 58.8 nM
[49]
  TGI: 261 nM
[50]
  TGI: 193 nM
[51]
  TGI: 716 nM
[52]
  TGI: 332 nM
[58]
  TGI: > 100000 nM
[53]
  TGI: > 100000 nM
[54]
  TGI: 97.3 nM
[55]
  TGI: 4050 nM
